In ChEMBL document CHEMBL1151493, “Cholestane glycosides with potent cytostatic activities on various tumor cells from Ornithogalum saundersiae bulbs” (Bioorg Med Chem Lett, 1997):
≈ marks a conversion by molar mass, not a printed value.

Tests used:
[1] = system: A549; assay: Tested for the cytostatic activity as inhibitory concentration against A-549 human pulmonary adenocarcinoma cells; assay type: functional, cell-based
[2] = system: CCD 19Lu; assay: Tested for the cytostatic activity as inhibitory concentration against CCD-19Lu (human normal pulmonary) cells; assay type: functional, cell-based
[3] = system: CCRF-CEM; assay: Tested for the cytostatic activity as inhibitory concentration against CCRF-CEM human leukemia cells; assay type: functional, cell-based
[4] = system: FM3A; assay: Tested for the cytostatic activity as inhibitory concentration against FM3A mouse mastrocarcinoma cells; assay type: functional, cell-based
[5] = system: HL-60; assay: Tested in vitro for cytostatic activity against 60-cell line; assay type: functional, Homo sapiens
[6] = system: HL-60; assay: Tested for the cytostatic activity as inhibitory concentration against leukemia HL-60 cells; assay type: functional, cell-based; settings: Homo sapiens
[7] = species on record: Homo sapiens; assay: Tested for hemolytic activity in human erythrocytes at 100 ug/ml; Not hemolytic; assay type: functional
[8] = system: Lu-65; assay: Tested for the cytostatic activity as inhibitory concentration against Lu-65 human pulmonary large cell carcinoma; assay type: functional, cell-based
[9] = system: Lu-99 cell line; assay: Tested for the cytostatic activity as inhibitory concentration against Lu-99 human pulmonary large cell carcinoma; assay type: functional, cell-based
[10] = system: Mus musculus; assay: Increased life span against mouse P388 leukemic cells after 0.01 mg/kg administration in mice; assay type: functional
[11] = system: P388CPT; assay: Tested for the cytostatic activity as inhibitory concentration against camptothecin resistant P-388 mouse leukemia cells; assay type: functional, cell-based
[12] = system: P388; assay: Tested for the cytostatic activity as inhibitory concentration against P-388 mouse leukemia cells; assay type: functional, cell-based
[13] = system: P388/ADM; assay: Tested for the cytostatic activity as inhibitory concentration against adriamycin resistant P-388 mouse leukemia cells; assay type: functional, cell-based
[14] = system: RERF-LC-AI; assay: Tested for the cytostatic activity as inhibitory concentration against RERF-LC-AI human pulmonary squamous cell carcinoma; assay type: functional, cell-based
[15] = system: NCI-60 panel; assay: Tested in vitro for cytostatic activity against 60-cell line; settings: Homo sapiens
[16] = Homo sapiens, CCD 19Lu, read-out: IC50
[17] = Homo sapiens, CCRF-CEM, read-out: IC50
[18] = Homo sapiens, Lu-99, read-out: IC50
[19] = Mus musculus, P388, read-out: IC50

Row | Compound | IC50 [2, 16] [µg/mL] | IC50 [3, 17] [ng/mL] | IC50 [6] [nM] | IC50 [9, 18] [ng/mL] | IC50 [12, 19] [ng/mL] | also measured
1 | COc1ccc(C(=O)O[C@@H]2[C@H](O[C@H]3[C@@H](OC(C)=O)[C@H](O[C@H]4C[C@H]5[C@@H]6CC=C7C[C@@H](O)CC[C@]7(C)[C@H]6CC[C@]5(C)[C@@]4(O)[C@H](C)C(=O)CCC(C)C)OC[C@@H]3O)OC[C@@H](O)[C@@H]2O)cc1 | 1.5 (≈ 1720 nM) | 0.16 (≈ 0.183 nM) | 0.25 | 0.2 (≈ 0.229 nM) | 0.13 (≈ 0.149 nM) | IC50 [1]: 0.68 ng/mL (≈ 0.779 nM); IC50 [4]: 0.16 ng/mL (≈ 0.183 nM); IC100 [5]: 58 nM; Activity [7]: Not hemolytic; IC50 [8]: 0.2 ng/mL (≈ 0.229 nM); ILS at 0.01 mg/kg [10]: 59%; IC50 [11]: 0.1 ng/mL (≈ 0.115 nM); IC50 [13]: 0.77 ng/mL (≈ 0.882 nM); IC50 [14]: 0.26 ng/mL (≈ 0.298 nM); IC50 [15]: 0.78 nM
2 | CC(C)CCC(=O)[C@@H](C)[C@@]1(O)[C@@H](O[C@@H]2OC[C@H](O)[C@@H](O[C@@H]3OC[C@@H](O)[C@H](O)[C@@H]3O)[C@H]2O)C[C@H]2[C@@H]3CC=C4C[C@@H](O)CC[C@]4(C)[C@H]3CC[C@@]21C | – | – | 190 | – | – | –
3 | CC[C@@]1(O)C(=O)OCc2c1cc1n(c2=O)Cc2cc3ccccc3nc2-1 [CAMPTOTHECIN] | 2 (≈ 5740 nM) | 5 (≈ 14.4 nM) | – | 1 (≈ 2.87 nM) | 5 (≈ 14.4 nM) | –
4 | COc1ccc(C(=O)O[C@@H]2[C@H](O[C@H]3[C@@H](OC(C)=O)[C@H](O[C@H]4C[C@H]5[C@@H]6CC=C7C[C@@H](O)CC[C@]7(C)[C@H]6CC[C@]5(C)[C@]4(O)[C@H](C)C(=O)CCC(C)C)OC[C@@H]3O)OC[C@@H](O)[C@@H]2O)cc1OC | – | – | 0.2 | – | – | –
5 | CC(=O)O[C@H]1[C@H](O[C@H]2C[C@H]3[C@@H]4CC=C5C[C@@H](O)CC[C@]5(C)[C@H]4CC[C@]3(C)[C@@]2(O)[C@H](C)C(=O)CCC(C)C)OC[C@H](O)[C@H]1O[C@@H]1OC[C@@H](O)[C@H](O)[C@@H]1OC(=O)/C=C/c1ccccc1 | – | – | 0.29 | – | – | –
6 | COc1cccc2c1C(=O)c1c(O)c3c(c(O)c1C2=O)C[C@@](O)(C(=O)CO)C[C@@H]3O[C@H]1C[C@H](N)[C@H](O)[C@H](C)O1 [DOXORUBICIN] | 2 (≈ 3680 nM) | 10 (≈ 18.4 nM) | – | 2 (≈ 3.68 nM) | 3 (≈ 5.52 nM) | –
7 | COc1ccc(C(=O)O[C@@H]2[C@H](O[C@H]3[C@@H](OC(C)=O)[C@H](O[C@H]4C[C@H]5[C@@H]6CC=C7C[C@@H](O[C@@H]8O[C@@H](CO)[C@@H](O)[C@H](O)[C@@H]8O)CC[C@]7(C)[C@H]6CC[C@]5(C)[C@@]4(O)[C@H](C)C(=O)CCC(C)C)OC[C@@H]3O)OC[C@@H](O)[C@@H]2O)cc1 | – | – | 0.24 | – | – | –
8 | CISPLATIN | – | – | – | – | – | IC50 ([2]; ccd 19lu): 10 µg/mL; IC50 ([3]; ccrf-cem): 5 ng/mL; IC50 ([9]; lu-99): 1 ng/mL; IC50 ([12]; p388): 50 ng/mL
9 | CO[C@@]12[C@H](COC(N)=O)C3=C(C(=O)C(C)=C(N)C3=O)N1C[C@@H]1N[C@@H]12 [MITOMYCIN] | 2 (≈ 5980 nM) | 20 (≈ 59.8 nM) | – | 10 (≈ 29.9 nM) | 10 (≈ 29.9 nM) | –
10 | CC(=O)O[C@H]1[C@H](O[C@H]2C[C@H]3[C@@H]4CC=C5C[C@@H](O[C@@H]6O[C@@H](CO)[C@@H](O)[C@H](O)[C@@H]6O)CC[C@]5(C)[C@H]4CC[C@]3(C)[C@@]2(O)[C@H](C)C(=O)CCC(C)C)OC[C@H](O)[C@H]1O[C@@H]1OC[C@@H](O)[C@H](O)[C@@H]1OC(=O)/C=C/c1ccccc1 | – | – | 0.12 | – | – | –
11 | CC(=O)O[C@H]1C(=O)[C@@]2(C)[C@H]([C@H](OC(=O)c3ccccc3)[C@]3(O)C[C@H](OC(=O)[C@H](O)[C@@H](NC(=O)c4ccccc4)c4ccccc4)C(C)=C1C3(C)C)[C@]1(OC(C)=O)CO[C@@H]1C[C@@H]2O [PACLITAXEL] | 2 (≈ 2340 nM) | 1 (≈ 1.17 nM) | – | 2 (≈ 2.34 nM) | 10 (≈ 11.7 nM) | –
